pIC50: −log10 of the molar value.
The compounds below were run against T1, p101/p110γ protein (PI3Kγ) (Homo sapiens, UniProt P48736) (assay: PI3Kγ in vitro kinase assay). Settings: purified recombinant p101/p110γ with G protein β1/γ2 subunits; 20 μM ATP, 25 μM PIP2; 20 minutes at room temperature.
T1 construct: HA; made in house; host or cells: Spodoptera frugiperda (Sf9) cells, baculovirus coinfection
T1 sequence (P48736 whole entry, species assumed): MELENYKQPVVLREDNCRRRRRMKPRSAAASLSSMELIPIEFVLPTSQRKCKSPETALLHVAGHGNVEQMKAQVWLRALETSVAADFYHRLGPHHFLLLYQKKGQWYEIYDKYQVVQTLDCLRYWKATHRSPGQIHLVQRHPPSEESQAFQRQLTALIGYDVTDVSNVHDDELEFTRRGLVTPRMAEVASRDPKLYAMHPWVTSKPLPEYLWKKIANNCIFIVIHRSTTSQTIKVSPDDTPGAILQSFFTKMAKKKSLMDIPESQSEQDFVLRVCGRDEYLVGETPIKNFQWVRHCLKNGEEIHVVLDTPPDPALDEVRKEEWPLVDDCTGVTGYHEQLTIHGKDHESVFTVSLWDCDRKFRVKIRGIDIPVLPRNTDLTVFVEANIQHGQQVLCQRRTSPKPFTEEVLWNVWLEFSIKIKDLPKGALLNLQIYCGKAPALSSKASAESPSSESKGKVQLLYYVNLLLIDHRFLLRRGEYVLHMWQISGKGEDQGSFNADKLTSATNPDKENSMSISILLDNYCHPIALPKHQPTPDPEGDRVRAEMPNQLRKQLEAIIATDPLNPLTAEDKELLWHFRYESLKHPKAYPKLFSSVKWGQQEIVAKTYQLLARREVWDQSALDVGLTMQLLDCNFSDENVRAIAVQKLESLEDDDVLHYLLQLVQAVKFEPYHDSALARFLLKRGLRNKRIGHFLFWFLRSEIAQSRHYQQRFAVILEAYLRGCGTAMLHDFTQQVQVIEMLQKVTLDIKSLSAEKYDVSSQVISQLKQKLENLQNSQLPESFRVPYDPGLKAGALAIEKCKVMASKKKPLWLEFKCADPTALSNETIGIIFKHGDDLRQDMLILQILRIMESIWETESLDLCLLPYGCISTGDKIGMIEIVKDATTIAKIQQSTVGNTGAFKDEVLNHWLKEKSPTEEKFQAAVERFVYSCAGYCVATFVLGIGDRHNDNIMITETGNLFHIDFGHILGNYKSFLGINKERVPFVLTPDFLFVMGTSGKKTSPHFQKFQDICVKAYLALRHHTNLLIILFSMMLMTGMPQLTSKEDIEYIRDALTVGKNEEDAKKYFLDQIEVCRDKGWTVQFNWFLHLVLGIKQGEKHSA
T1 sequence (Q8WYR1 whole entry partner, species assumed): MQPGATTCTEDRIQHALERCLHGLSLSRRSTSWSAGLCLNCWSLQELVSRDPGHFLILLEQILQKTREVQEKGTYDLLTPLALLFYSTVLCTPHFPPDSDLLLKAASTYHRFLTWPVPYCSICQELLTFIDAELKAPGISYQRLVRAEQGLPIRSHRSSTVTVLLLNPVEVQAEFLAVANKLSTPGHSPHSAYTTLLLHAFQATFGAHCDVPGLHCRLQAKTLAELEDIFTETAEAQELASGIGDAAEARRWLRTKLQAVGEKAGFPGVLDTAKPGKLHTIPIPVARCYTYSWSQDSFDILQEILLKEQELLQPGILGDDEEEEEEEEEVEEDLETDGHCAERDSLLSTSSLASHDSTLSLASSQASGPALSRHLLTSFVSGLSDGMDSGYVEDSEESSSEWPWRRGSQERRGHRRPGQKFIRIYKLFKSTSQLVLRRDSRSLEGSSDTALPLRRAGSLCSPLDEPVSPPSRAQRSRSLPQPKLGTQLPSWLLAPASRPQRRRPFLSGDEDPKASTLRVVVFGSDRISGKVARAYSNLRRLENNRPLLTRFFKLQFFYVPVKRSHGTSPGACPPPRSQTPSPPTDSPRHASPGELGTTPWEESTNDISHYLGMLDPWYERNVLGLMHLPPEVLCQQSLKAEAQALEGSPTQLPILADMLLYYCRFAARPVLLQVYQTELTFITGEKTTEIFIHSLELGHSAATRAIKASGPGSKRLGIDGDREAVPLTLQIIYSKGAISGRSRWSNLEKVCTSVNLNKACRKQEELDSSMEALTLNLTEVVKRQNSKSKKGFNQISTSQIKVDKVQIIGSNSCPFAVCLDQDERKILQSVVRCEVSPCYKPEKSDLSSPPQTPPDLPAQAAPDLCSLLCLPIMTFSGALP
Format: biochemical
Description: Spodtera frugiperda cells, grown in ESF921 media, were coinfected with baculovirus expressing a glu-tagged p101 and baculovirus expressing an HA-tagged p110γ, at a 3:1 ratio of p101 baculovirus to p110γ baculovirus. Sf9 cells were grown to 1×10^7 total cells/mL in 10 L bioreactors and harvested 48–72 hours post infection. Samples of infected cells were then tested for expression of […] PI3 kinase by immunoprecipitation and Western Blot analysis methods (see below).
To purify PI3Kγ, 4 volumes of room temperature hypotonic lysis buffer (1 mM MgCl2, 1 mM DTT, 5 mM EGTA, 1 mM Pefabloc, 0.5 μM aprotinin, 5 μM leupeptin, 2 μM pepstatin, 5 μM E64, pH 8) per gram of cell paste, was poured onto frozen cell pellets with stirring, then lysed in a nitrogen “bomb” at 400 psi (599HC T316, Parr Instrument Co, Moline, Ill.). NaCl was added to 150 mM, and sodium cholate was added to 1% and mixed for another 45 minutes. The lysates were clarified by centrifugation for 25 minutes at 14,000 rpm. The lysates were then loaded over anti-glu-linked Protein-G Sepaharose beads (Covance Research Products, Richmond, Calif.) using 20 mL resin/50 g cell paste. The column was washed with 15 volumes of wash buffer (1 mM DTT, 0.2 mM EGTA, 1 mM Pefabloc, 0.5 μM aprotinin, 5 μM leupeptin, 2 μM pepstatin, 5 μM E64, 150 mM NaCl, 1% sodium cholate, pH 8). PI3Kγ was eluted with 6 column volumes of wash buffer that contain 100 μg/mL of a peptide that competes for binding of the glu tag. The column fractions with the eluted protein (determined by taking OD280 readings) were collected and dialyzed in 0.2 mM EGTA, 1 mM DTT, 1 mM Pefabloc, 5 μM leupeptin, 0.5% sodium cholate, 150 mM NaCl, and 50% glycerol, pH 8. The fractions were stored at −80° C. until further use.
Spodtera frugiperda cells were coinfected with baculovirus expressing a glu-tagged G protein β1 and baculovirus expressing a G protein β2, at a 1:1 ratio of glu-tagged G protein β1 baculovirus to G protein β2 baculovirus. Sf9 cells are grown in 10 L bioreactors and harvested 48–72 hours post infection. Samples of infected cells were tested for G protein β1/β2 expression by Western Blot analysis, as described below. Cell lysates were homogenized and loaded onto a column of glu-tagged beads as in Biological Example 1 and competed off the column with a glu peptide and processed as described in Biological Example 1.
The inhibitory properties of the compounds in Table 1 were assayed in an in vitro PI3K assay. In a 96-well polypropylene plate, each well was spotted with 2 μL of 50 times the desired final concentration of compound in DMSO. Purified recombinant p101/p110γ protein (0.03 μg; ˜2.7 nM) and G protein β1/γ2 subunits (0.09 μg; ˜57.7 nM) for each reaction was combined in the assay buffer (30 mM HEPES, 100 mM NaCl, 1 mM EGTA, and 1 mM DTT). ATP and [γ-^32P-ATP] (0.09 μCi) were added to this mixture so that the final ATP concentration in the reaction was 20 μM. Lipid micelles were formed by sonicating phosphatidylinositol-4,5-diphosphate (PIP2), phosphatidylethanolamine (PE), and Na-cholate in the assay buffer for 10 minutes, adding MgCl2 and incubating on ice for 20 minutes, for final concentrations of 25 μM PIP2, 300 μM PE, 0.02% Na-cholate, and 10 mM MgCl2 in the reaction. The reactions were started by adding equal volumes lipid and enzyme mixture in a total volume of 50 μL, allowed to run for 20 minutes at room temperature, and stopped with 100 μL 75 mM H3PO4. The lipid product was transferred to a glass fiber filter plate and washed with 75 mM H3PO4 several times. The presence of radioactive lipid product (PIP3) was measured by adding Wallac Optiphase mix to each well and counting in a Wallac 1450 Trilux plate reader (PerkinElmer Life Sciences Inc., Boston, Mass. 02118). The IC50 for each compound tested is reported in μM in Table 1: […]
In the case of “5,6-Dimethoxy-3-phenyl-1-propyl-1H-indole-2-carboxylic acid (1H-tetrazol-5-yl)-amide [Example 7]”, the pIC50 was 5.38. With “1-Ethyl-5,6-dimethoxy-3-phenyl-1H-indole-2-carboxylic acid (1H-tetrazol-5-yl)-amide [Example 6]” the pIC50 was 5.18. With `COc1cc2[nH]c(C(=O)Nc3nn[nH]n3)c(Sc3ccc(Cl)c(Cl)c3)c2cc1OC` [Example 2, 3-(3,4-Dichloro-phenylsulfanyl)-5,6-dimethoxy-1H-indole-2-carboxylic acid (2H-tetrazol-5-yl)-amide] the pIC50 was 5.73. `COc1cc2[nH]c(C(=O)Nc3nn[nH]n3)c(Sc3ccccc3C)c2cc1OC` [Example 1, 5,6-Dimethoxy-3-o-tolylsulfanyl-1H-indole-2-carboxylic acid (2H-tetrazol-5-yl)-amide] showed a pIC50 of 6.23. With `COc1cccc(Sc2c(C(=O)Nc3nn[nH]n3)[nH]c3cc(OC)c(OC)cc23)c1` [Example 5, 5,6-Dimethoxy-3-(3-methoxy-phenylsulfanyl)-1H-indole-2-carboxylic acid (2H-tetrazol-5-yl)-amide] the pIC50 was 6.14. Work on `COc1cc2c(Sc3ccccc3)c(C(=O)Nc3nn[nH]n3)n(C)c2cc1OC` [Example 3, 5,6-Dimethoxy-1-methyl-3-phenylsulfanyl-1H-indole-2-carboxylic acid (2H-tetrazol-5-yl)-amide] yielded a pIC50 of 6.26. Work on `COc1cc2[nH]c(C(=O)Nc3nn[nH]n3)c(Sc3ccccc3)c2cc1OC` [Example 4, 5,6-Dimethoxy-3-phenylsulfanyl-1H-indole-2-carboxylic acid (2H-tetrazol-5-yl)-amide] yielded a pIC50 of 6.68.
